In US20110086826A1, “LIPOSOMAL CAMPTOTHECINS AND USES THEREOF” (TEKMIRA PHARMACEUTICALS CORPORATION, priority 2000, published 2011):
Like-named read-outs stand apart in the source and are kept apart here. Marks after values point to notes of the source that are not given here.

Columns and labels:
[1] = Pharmacokinetic and in vivo leakage studies; design: species or system ICR mice; conditions: plasma, i.v.
Protocol: 5. Pharmacokinetic and in vivo leakage studies. […] Two different drug-to-lipid ratios, i.e., 0.10 (w/w) and 0.02 (w/w), were used to examine the influence of drug-to-lipid ratio and lipid dose on drug leakage and PK behavior. Encapsulated topotecan was administered at 1 mg/kg (10 or 50 mg/kg lipid) and 5 mg/kg topotecan (50 mg/kg lipid). […] Total topotecan in blood was determined by a fluorescence assay preceded by precipitation of plasma proteins. Topotecan was quantified by spectrofluorimetry at an excitation (2.5 nm slit width) and emission wavelength (2.5 nm slit width) of 380 and 518 nm, respectively. Lipid levels in plasma were determined by liquid scintillation counting of the [^3H]-CHE label.
All parameters were derived from one or two-compartment models using WINNONLIN PK modeling software.

[2] = Myelosuppression and neutropenia studies (blood CBC and differential); assay type: in vivo, ICR mice; conditions: 10 mg/kg i.v.
Protocol: Myelosuppression and neutropenia studies. […] Empty vesicles were administered as a control. CBC and differential analysis was performed at Central Labs for Veterinarians (Langley, BC) to quantify cellular levels, ratios and morphology.

L1210 murine leukemia = experiment: Intravenous L1210 murine leukemia model; conditions: for % ILS (increase in lifespan) / DRD (drug related deaths) / MWL (maximum mean weight loss) / TF (tumor free animals at end of study): L1210 i.v.
Protocol: FIG. 3. […] L1210 cells (10^5 cells in 200 μl) were injected i.v. into the tail vein of BDF-1 mice on day 0. […] Each group consisted of 8 animals. Data is from NCTEF-005.
(§1) In the above formula, MTD is the maximum tolerated dose, defined as that dose that causes a mean weight loss of 20% in a group of animals; and MED is the minimal effective dose, defined as the dose that produces an optimal % T/C value of ≦40 in the solid tumor models or an % ILS of 50±10% in the survival models.

[3] = test system: CT-26 murine colon metastases; experiment: Intrasplenic CT-26 murine colon metastases model; conditions: for % ILS (increase in lifespan) / DRD (drug related deaths) / MWL (maximum mean weight loss) / TF (tumor free animals at end of study): CT-26 i.s.
Protocol: FIG. 4. […] CT-26 cells (10^4 cells in 50 μl) were injected into the spleen of Balb/c mice on day 0. […] Each group consisted of 8 animals. Data is from NCTEF-002.
as §1

[4] = test system: MX-1 human breast xenografts; experiment: Subcutaneous MX-1 human breast xenografts
Source text: FIG. 5. […] Data is from NCTEF-004.
FIG. 7. […] Data is from NCTEF-006.
FIG. 8. […] Data is from NCTEF-009.

[5] = cited from earlier work
[6] = MTD of free topotecan in humans; conditions: 1.5 vs 14 mg/M^2
[7] = MTD studies (weight loss over time); conditions: if the drug was infused over 5-10 minutes
Protocol: MTD studies. MTD studies were performed in the host mouse strain corresponding to each tumor model. Single dose and multidose MID were determined by monitoring weight loss over time.

[8] = day 3 post-injection (first line of treatment)
[9] = day 21 post-injection (second line of treatment)
[10] = L1210, single i.v. dose, highest dose of free topotecan
[11] = MX-1 s.c., q3dx4, 1.25 mg/kg/dose i.v.
[12] = MX-1 s.c., q3dx4, 10 mg/kg/dose i.v.
[13] = MX-1 s.c., q7dx3, 5 mg/kg/dose i.v.
[14] = MX-1 s.c., q7dx3, 10 mg/kg/dose i.v.
[15] = MX-1 s.c., single dose 5, 10 and 40 mg/kg
[16] = MX-1 s.c., single i.v. dose 5 mg/kg
[17] = MX-1 s.c., single i.v. dose 10 mg/kg
[18] = MX-1 s.c., single i.v. dose 40 mg/kg

`CC[C@@]1(O)C(=O)OCc2c1cc1n(c2=O)Cc2cc3c(CN(C)C)c(O)ccc3nc2-1` [Free, 9-dimethylaminomethyl-10-hydroxy-camptothecin] showed a α1/2 ([1]; 1 mg/kg) of 0.14 h, a β1/2 ([1]; 1 mg/kg) of 11.8 h and a α1/2 ([1]; 5 mg/kg) of 0.26 h. For the same compound, the β1/2 ([1]; 5 mg/kg) was 11.4 h, the Baso ([2]; day 3 post-injection) was 0.057 ± 0.040 ×10^9/L and the Eosino ([2]; day 3 post-injection) was 0.031 ± 0.021 ×10^9/L. The Lympho ([2]; day 3 post-injection) was 5.90 ± 1.70 ×10^9/L, the Mono ([2]; day 3 post-injection) was 0.177 ± 0.072 ×10^9/L and the Neutro ([2]; day 3 post-injection) was 0.520 ± 0.200 ×10^9/L. For the same compound, the WBC ([2]; day 3 post-injection) was 6.70 ± 1.95 ×10^9/L, the Hb [2, 8] was 136 ± 05 g/L and the Hc [2, 8] was 0.444 ± 0.012 L/L. For the same compound, the PLT [2, 8] was 879 ± 145 ×10^9/L, the RBC [2, 8] was 8.47 ± 0.39 ×10^12/L and the Baso ([2]; day 21 post-injection) was 0.088 ± 0.071 ×10^9/L. For the same compound, the Eosino ([2]; day 21 post-injection) was 0.034 ± .016 ×10^9/L, the Lympho ([2]; day 21 post-injection) was 4.33 ± 0.93 ×10^9/L and the Mono ([2]; day 21 post-injection) was 0.247 ± 0.180 ×10^9/L. The Neutro ([2]; day 21 post-injection) was 0.480 ± 0.122 ×10^9/L, the WBC ([2]; day 21 post-injection) was 5.16 ± 1.18 ×10^9/L and the Hb [2, 9] was 154 ± 04 g/L. The Hc [2, 9] was 0.493 ± 0.014 L/L, the PLT [2, 9] was 907 ± 059 ×10^9/L and the RBC [2, 9] was 9.81 ± 0.37 ×10^12/L. The “long-term survivors (day 60)” value (L1210 murine leukemia; [10]) was “one long-term survivor”, the median survival (L1210 murine leukemia; [10]) was 13 days and the “% ILS (increase in lifespan)” value (L1210 murine leukemia; single i.v. dose 5 mg/kg) was 11%. The “DRD (drug related deaths)” value (L1210 murine leukemia; single i.v. dose 5 mg/kg) was 0/8, the “MWL (maximum mean weight loss)” value (L1210 murine leukemia; single i.v. dose 5 mg/kg) was “+” and the “TF (tumor free animals at end of study)” value (L1210 murine leukemia; single i.v. dose 5 mg/kg) was 0/8. For the same compound, the “% ILS (increase in lifespan)” value (L1210 murine leukemia; single i.v. dose 10 mg/kg) was 22%, the “DRD (drug related deaths)” value (L1210 murine leukemia; single i.v. dose 10 mg/kg) was 0/8 and the “MWL (maximum mean weight loss)” value (L1210 murine leukemia; single i.v. dose 10 mg/kg) was “+”. The “TF (tumor free animals at end of study)” value (L1210 murine leukemia; single i.v. dose 10 mg/kg) was 0/8, the “% ILS (increase in lifespan)” value (L1210 murine leukemia; single i.v. dose 20 mg/kg) was 33% and the “DRD (drug related deaths)” value (L1210 murine leukemia; single i.v. dose 20 mg/kg) was 0/8. For the same compound, the “MWL (maximum mean weight loss)” value (L1210 murine leukemia; single i.v. dose 20 mg/kg) was “+”, the “TF (tumor free animals at end of study)” value (L1210 murine leukemia; single i.v. dose 20 mg/kg) was 0/8 and the “DRD (drug related deaths)” value (L1210 murine leukemia; single i.v. dose 30 mg/kg) was 0/8. For the same compound, the “MWL (maximum mean weight loss)” value (L1210 murine leukemia; single i.v. dose 30 mg/kg) was “+”, the “TF (tumor free animals at end of study)” value (L1210 murine leukemia; single i.v. dose 30 mg/kg) was 0/8 and the “DRD (drug related deaths)” value (L1210 murine leukemia; single i.v. dose 40 mg/kg) was 0/8. The “MWL (maximum mean weight loss)” value (L1210 murine leukemia; single i.v. dose 40 mg/kg) was “+”, the “TF (tumor free animals at end of study)” value (L1210 murine leukemia; single i.v. dose 40 mg/kg) was 0/8 and the “% ILS” value ([3]; CT-26, single dose, over the dose range 5-40 mg/kg) was 23-60%. For the same compound, the “% ILS (increase in lifespan)” value ([3]; single i.v. dose 5 mg/kg) was 31%, the “DRD (drug related deaths)” value ([3]; single i.v. dose 5 mg/kg) was 0/8 and the “MWL (maximum mean weight loss)” value ([3]; single i.v. dose 5 mg/kg) was “+”. The “TF (tumor free animals at end of study)” value ([3]; single i.v. dose 5 mg/kg) was 0/8, the “% ILS (increase in lifespan)” value ([3]; single i.v. dose 10 mg/kg) was 23% and the “DRD (drug related deaths)” value ([3]; single i.v. dose 10 mg/kg) was 0/8. For the same compound, the “MWL (maximum mean weight loss)” value ([3]; single i.v. dose 10 mg/kg) was “+”, the “TF (tumor free animals at end of study)” value ([3]; single i.v. dose 10 mg/kg) was 0/8 and the “DRD (drug related deaths)” value ([3]; single i.v. dose 40 mg/kg) was 0/8. For the same compound, the “MWL (maximum mean weight loss)” value ([3]; single i.v. dose 40 mg/kg) was −0.4%, the “TF (tumor free animals at end of study)” value ([3]; single i.v. dose 40 mg/kg) was 1/8 and the “anti-tumor activity (in words)” value ([4]; MX-1, q7d×3, 5 or 10 mg/kg/dose) was “little activity was observed”. For the same compound, the “% ILS (increase in lifespan)” value [4, 11] was 20%, the “DRD (drug related deaths)” value [4, 11] was 0/6 and the “LCK (log cell kill, gross)” value [4, 11] was 0.17. The “MWL (maximum mean weight loss)” value [4, 11] was “+^h”, the “TF (tumor free animals at end of study)” value [4, 11] was 0/6 and the “DRD (drug related deaths)” value [4, 12] was 0/6. For the same compound, the “LCK (log cell kill, gross)” value [4, 12] was 0.21, the “MWL (maximum mean weight loss)” value [4, 12] was “+” and the “TF (tumor free animals at end of study)” value [4, 12] was 1/6. For the same compound, the “DRD (drug related deaths)” value [4, 13] was 0/6, the “LCK (log cell kill, gross)” value [4, 13] was 0.15 and the “MWL (maximum mean weight loss)” value [4, 13] was “+”. The “TF (tumor free animals at end of study)” value [4, 13] was 0/6, the “% T/C (optimal)” value [4, 14] was 61% and the “DRD (drug related deaths)” value [4, 14] was 0/6. The “MWL (maximum mean weight loss)” value [4, 14] was −0.8%, the “TF (tumor free animals at end of study)” value [4, 14] was 0/6 and the body weight [4, 15] was “all animals gained weight”. For the same compound, the drug-related deaths [4, 15] was “No drug-related deaths were observed”, the “% ILS (increase in lifespan)” value [4, 16] was 0% and the “% T/C (optimal)” value [4, 16] was 78%. The “DRD (drug related deaths)” value [4, 16] was 0/6, the “LCK (log cell kill, gross)” value [4, 16] was 0.02 and the “MWL (maximum mean weight loss)” value [4, 16] was “+”. The “T − C (tumor growth delay)” value [4, 16] was 0.2 days, the “TF (tumor free animals at end of study)” value [4, 16] was 0/6 and the “% ILS (increase in lifespan)” value [4, 17] was 13%. For the same compound, the “DRD (drug related deaths)” value [4, 17] was 0/6, the “LCK (log cell kill, gross)” value [4, 17] was 0.12 and the “MWL (maximum mean weight loss)” value [4, 17] was “+”. For the same compound, the “TF (tumor free animals at end of study)” value [4, 17] was 0/6, the “% ILS (increase in lifespan)” value [4, 18] was 35% and the “% T/C (optimal)” value [4, 18] was 24%. For the same compound, the “DRD (drug related deaths)” value [4, 18] was 0/6, the “LCK (log cell kill, gross)” value [4, 18] was 0.35 and the “MWL (maximum mean weight loss)” value [4, 18] was “+”. For the same compound, the “TF (tumor free animals at end of study)” value [4, 18] was 0/6, the LD10 ([5]; mouse, in vivo) was 14 mg/M2/dose and the LD10 ([5]; qd×5 schedule, Grochow et al.) was about 4.7 mg/kg/dose. For the same compound, the “human tolerated dose as share of the MTD in mice” value [6] was 11% and the “true MTD (based on weight loss), estimated” value [7] was about 60 mg/kg.
